Literature values, collected in US20190328869A1, “IMMUNOTHERAPEUTIC PRODUCT AND MDSC MODULATOR COMBINATION THERAPY” (Transgene SA, priority 2016, published 2019).

What was measured:
circulating CD34+ MDSCs = settings: head and neck cancer patients; cited from earlier work
[1] = system: HBV-specific CD4+ and CD8+ T cells in PBMCs; settings: PBMCs from chronically HBV infected patients; cited from earlier work
[2] = system: circulating CD33+HLA-DR− MDSCs; settings: patients with metastatic renal cell carcinoma; cited from earlier work

C=C1CC[C@H](O)C/C1=C/C=C1\CCC[C@]2(C)[C@@H]([C@H](C)CCCC(C)(C)O)CC[C@@H]12 [25-hydroxyvitamin D3]
circulating CD34+ MDSCs (circulating CD34+ MDSCs): reduced the circulating CD34^+ MDSCs
clinical outcome (circulating CD34+ MDSCs): failed to improve clinical outcome

CC1=C(/C=C/C(C)=C/C=C/C(C)=C/C(=O)O)C(C)(C)CCC1 [ATRA, All-trans retinoic acid]
proliferation and IFN-γ production by HBV-specific CD4+ and CD8+ T cells [1]: restore the proliferation and IFN-γ production
circulating CD33+HLA-DR− MDSCs [2]: decreased circulating CD33^+HLA-DR^− MDSCs
